From US20100137449A1, “SUBSTITUTED 1,3-CYCLOPENTADIONE MULTI-TARGET PROTEIN KINASE MODULATORS OF CANCER, ANGIOGENESIS AND THE INFLAMMATORY PATHWAYS ASSOCIATED THEREWITH” (METAPROTEOMICS, LLC, priority 2007, published 2010)

Experiments:
Assay in all cases: KinaseProfiler Assay
CHK2(h) = CHK2(h) (Homo sapiens, UniProt O96017)
SAPK2b(h) = SAPK2b(h) (Homo sapiens, UniProt Q15759)
HIPK2(h) = HIPK2(h) (Homo sapiens, UniProt Q9H2X6)
PDGFRβ(h) = PDGFRβ(h) (Homo sapiens, UniProt P09619)
MKK4(m) = molecular target: T1, MKK4(m) (Mus musculus, UniProt P47809)
T1 sequence (P47809 1-397): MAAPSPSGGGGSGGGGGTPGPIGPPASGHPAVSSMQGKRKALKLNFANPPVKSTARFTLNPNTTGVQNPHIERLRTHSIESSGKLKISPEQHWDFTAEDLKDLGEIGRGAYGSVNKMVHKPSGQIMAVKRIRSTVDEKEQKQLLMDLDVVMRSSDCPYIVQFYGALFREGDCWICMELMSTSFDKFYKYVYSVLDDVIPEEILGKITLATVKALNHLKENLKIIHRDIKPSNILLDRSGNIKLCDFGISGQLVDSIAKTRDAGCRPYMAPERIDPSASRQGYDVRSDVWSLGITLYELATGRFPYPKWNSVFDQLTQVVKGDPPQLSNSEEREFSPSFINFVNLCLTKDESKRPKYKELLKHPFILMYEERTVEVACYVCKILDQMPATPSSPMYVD

EGFR(L858R)(h) = EGFR(L858R)(h) (Homo sapiens, UniProt P00533, L858R)
DAPK1(h) = DAPK1(h) (Homo sapiens, UniProt P53355)
PAK2(h) = PAK2(h) (Homo sapiens, UniProt Q13177)
SAPK3(h) = molecular target: T2, SAPK3(h) (Homo sapiens, UniProt P53778)
T2 sequence (P53778 1-367): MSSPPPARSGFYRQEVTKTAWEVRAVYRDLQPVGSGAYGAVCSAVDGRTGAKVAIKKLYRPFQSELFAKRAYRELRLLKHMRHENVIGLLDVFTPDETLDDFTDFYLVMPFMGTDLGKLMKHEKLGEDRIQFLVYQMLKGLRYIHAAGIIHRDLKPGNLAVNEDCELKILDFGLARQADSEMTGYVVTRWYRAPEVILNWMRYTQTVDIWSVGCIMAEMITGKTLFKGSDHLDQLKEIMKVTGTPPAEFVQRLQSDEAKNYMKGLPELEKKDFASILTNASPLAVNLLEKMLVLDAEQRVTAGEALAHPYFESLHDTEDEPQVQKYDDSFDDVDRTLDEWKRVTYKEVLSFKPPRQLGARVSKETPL

CK1γ3(h) = CK1γ3(h) (Homo sapiens, UniProt Q9Y6M4)
CDK5/p25(h) = CDK5/p25(h) (Homo sapiens, UniProt Q00535)
SIK(h) = SIK(h) (Homo sapiens, UniProt P57059)

CK1γ3(h), sequence (Q9Y6M4 whole entry): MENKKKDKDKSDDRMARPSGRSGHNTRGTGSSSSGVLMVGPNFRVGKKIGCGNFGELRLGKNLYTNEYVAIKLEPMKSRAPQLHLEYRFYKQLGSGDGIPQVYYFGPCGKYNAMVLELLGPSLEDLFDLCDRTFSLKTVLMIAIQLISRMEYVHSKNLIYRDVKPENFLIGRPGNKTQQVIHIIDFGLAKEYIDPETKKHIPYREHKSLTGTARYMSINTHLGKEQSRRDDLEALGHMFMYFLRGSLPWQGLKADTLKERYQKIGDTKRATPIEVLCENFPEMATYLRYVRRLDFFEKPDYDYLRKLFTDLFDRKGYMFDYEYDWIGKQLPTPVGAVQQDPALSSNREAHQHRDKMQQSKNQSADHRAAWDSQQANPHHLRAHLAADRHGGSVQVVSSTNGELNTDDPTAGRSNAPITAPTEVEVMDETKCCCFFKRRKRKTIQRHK
CHK2(h), sequence (O96017 whole entry): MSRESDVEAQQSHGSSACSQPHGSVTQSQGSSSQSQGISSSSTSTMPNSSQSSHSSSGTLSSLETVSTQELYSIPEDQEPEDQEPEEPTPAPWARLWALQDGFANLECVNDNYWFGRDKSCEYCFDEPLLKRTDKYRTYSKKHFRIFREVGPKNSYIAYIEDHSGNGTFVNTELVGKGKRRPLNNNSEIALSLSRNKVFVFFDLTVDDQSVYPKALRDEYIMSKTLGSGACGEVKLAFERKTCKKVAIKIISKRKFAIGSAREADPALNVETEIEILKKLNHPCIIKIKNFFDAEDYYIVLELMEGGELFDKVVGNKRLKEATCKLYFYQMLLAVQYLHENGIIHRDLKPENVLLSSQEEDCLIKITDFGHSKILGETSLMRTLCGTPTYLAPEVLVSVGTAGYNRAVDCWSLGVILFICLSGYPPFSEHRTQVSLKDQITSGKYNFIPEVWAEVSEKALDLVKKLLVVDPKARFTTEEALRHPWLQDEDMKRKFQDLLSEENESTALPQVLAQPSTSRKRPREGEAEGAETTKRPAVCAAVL
CDK5/p25(h), sequence (Q00535 whole entry): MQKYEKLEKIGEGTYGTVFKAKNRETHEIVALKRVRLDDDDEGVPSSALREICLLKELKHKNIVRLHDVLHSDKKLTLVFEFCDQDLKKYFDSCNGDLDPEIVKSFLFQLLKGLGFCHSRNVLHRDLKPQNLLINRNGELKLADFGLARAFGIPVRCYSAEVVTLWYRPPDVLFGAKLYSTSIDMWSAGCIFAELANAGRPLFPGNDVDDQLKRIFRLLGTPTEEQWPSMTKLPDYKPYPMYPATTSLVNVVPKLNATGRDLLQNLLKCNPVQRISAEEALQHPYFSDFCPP
CDK5/p25(h), sequence (Q15078 99-307 partner limits assumed): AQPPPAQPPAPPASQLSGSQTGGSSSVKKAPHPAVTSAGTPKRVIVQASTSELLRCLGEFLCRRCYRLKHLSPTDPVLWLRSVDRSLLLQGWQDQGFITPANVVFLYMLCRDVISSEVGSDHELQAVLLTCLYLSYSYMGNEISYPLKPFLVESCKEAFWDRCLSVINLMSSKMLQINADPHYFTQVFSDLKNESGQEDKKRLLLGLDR
SAPK2b(h), sequence (Q15759 whole entry): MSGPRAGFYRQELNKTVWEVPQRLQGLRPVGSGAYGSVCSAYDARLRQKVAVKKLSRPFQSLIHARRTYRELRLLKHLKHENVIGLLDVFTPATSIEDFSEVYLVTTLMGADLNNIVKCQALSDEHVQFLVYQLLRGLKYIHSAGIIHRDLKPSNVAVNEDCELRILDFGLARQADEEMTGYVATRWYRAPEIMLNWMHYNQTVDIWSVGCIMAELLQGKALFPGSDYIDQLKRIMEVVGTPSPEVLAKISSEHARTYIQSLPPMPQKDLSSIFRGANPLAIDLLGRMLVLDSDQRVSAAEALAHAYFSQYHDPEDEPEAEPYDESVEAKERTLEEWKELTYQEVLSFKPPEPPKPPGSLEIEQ
EGFR(L858R)(h), sequence (P00533 25-1210 L858R): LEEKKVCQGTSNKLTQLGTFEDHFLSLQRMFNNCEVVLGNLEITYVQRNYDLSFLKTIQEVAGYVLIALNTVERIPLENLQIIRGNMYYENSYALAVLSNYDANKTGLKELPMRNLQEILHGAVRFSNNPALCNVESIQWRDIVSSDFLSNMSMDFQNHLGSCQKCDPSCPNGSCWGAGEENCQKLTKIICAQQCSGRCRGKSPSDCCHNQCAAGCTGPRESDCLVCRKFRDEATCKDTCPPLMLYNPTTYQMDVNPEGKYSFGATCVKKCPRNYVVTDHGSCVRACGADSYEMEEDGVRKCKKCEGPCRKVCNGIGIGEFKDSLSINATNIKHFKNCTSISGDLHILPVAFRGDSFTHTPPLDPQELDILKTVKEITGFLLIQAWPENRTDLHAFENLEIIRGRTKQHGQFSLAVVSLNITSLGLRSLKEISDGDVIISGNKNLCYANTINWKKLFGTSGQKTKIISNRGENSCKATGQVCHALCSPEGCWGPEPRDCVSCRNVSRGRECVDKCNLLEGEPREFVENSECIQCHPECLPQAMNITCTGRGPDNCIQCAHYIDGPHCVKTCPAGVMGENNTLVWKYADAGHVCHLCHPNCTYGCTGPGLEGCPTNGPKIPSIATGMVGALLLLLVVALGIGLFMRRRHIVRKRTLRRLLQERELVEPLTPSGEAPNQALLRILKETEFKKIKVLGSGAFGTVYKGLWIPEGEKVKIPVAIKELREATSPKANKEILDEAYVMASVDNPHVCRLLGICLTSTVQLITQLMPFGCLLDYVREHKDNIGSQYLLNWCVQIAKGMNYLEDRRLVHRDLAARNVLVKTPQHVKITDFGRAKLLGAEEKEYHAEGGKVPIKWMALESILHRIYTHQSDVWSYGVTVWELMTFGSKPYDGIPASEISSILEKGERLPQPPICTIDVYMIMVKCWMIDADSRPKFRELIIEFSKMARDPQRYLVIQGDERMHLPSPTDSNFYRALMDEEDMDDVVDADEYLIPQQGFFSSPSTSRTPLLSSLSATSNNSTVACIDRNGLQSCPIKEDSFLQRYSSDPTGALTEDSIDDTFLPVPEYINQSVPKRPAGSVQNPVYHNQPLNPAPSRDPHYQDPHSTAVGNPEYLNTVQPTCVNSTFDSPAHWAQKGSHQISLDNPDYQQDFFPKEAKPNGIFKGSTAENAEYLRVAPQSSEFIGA
DAPK1(h), sequence (P53355 whole entry): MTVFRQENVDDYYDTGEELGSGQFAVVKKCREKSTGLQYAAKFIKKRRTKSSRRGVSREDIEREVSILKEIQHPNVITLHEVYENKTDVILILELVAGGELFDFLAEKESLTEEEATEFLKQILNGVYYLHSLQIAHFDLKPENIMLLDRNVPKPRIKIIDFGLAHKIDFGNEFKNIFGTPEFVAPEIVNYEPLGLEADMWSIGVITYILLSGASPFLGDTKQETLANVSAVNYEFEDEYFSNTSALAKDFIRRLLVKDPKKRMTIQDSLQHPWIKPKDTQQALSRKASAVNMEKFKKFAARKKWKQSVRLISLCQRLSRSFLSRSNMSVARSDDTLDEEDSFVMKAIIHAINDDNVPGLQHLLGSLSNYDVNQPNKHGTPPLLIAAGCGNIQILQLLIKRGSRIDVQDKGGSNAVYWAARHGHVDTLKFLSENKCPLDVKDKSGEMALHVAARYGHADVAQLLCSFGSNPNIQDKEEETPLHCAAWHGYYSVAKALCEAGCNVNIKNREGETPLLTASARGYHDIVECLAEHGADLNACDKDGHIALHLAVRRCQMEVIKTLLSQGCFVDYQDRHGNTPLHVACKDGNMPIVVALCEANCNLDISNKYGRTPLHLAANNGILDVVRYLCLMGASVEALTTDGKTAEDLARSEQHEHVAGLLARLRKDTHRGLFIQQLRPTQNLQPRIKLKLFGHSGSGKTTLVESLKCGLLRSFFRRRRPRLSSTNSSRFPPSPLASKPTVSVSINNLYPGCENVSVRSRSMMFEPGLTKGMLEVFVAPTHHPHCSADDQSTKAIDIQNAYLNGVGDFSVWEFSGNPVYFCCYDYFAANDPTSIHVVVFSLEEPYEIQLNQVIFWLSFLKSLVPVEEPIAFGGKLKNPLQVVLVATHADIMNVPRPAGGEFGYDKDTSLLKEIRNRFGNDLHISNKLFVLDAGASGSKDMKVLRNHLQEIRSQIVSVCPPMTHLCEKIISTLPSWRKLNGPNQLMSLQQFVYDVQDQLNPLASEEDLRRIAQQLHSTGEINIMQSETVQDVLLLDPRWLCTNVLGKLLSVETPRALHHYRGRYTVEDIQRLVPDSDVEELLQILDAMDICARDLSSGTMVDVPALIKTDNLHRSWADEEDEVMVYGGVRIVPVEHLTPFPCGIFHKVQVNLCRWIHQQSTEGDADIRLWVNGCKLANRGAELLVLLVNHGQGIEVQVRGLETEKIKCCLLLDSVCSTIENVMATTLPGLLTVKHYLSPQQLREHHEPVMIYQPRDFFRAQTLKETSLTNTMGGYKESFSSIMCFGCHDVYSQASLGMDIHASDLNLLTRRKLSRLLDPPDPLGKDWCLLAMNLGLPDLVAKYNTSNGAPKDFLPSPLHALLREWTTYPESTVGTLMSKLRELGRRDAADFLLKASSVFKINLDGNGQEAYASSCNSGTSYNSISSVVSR
PAK2(h), sequence (Q13177 whole entry): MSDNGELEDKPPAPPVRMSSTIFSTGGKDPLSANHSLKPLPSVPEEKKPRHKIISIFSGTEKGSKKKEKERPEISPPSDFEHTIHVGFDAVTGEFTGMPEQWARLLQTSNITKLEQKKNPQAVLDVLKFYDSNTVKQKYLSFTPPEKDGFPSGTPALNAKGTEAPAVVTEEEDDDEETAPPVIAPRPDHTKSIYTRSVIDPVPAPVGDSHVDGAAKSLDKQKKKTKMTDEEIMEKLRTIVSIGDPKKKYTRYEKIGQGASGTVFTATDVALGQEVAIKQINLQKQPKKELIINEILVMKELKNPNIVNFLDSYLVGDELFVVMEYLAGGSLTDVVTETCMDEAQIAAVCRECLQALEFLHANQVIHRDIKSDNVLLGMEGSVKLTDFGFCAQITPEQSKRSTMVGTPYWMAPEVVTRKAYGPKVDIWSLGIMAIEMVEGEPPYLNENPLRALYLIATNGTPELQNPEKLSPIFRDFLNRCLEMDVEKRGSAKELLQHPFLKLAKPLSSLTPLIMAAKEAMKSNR

`CC(C)CCC(=O)[C@]1(O)C(O)=C(C(=O)C(C)C)C(=O)[C@H]1CCC(C)C` [TH2, tetrahydroiso-cohumulone] was tested, and the kinase inhibition (CHK2(h); 1 μg/ml) was 107% of control, the kinase inhibition (CHK2(h); 5 μg/ml) was 107% of control and the kinase inhibition (CHK2(h); 25 μg/ml) was 105% of control. The kinase inhibition (CHK2(h); 50 μg/ml) was 108% of control, the kinase inhibition (CHK2(h); 100 μg/ml) was 97% of control and the kinase inhibition (SAPK2b(h); 1 μg/ml) was 117% of control. The kinase inhibition (SAPK2b(h); 5 μg/ml) was 110% of control, the kinase inhibition (SAPK2b(h); 25 μg/ml) was 108% of control and the kinase inhibition (SAPK2b(h); 50 μg/ml) was 108% of control. For the same compound, the kinase inhibition (SAPK2b(h); 100 μg/ml) was 111% of control, the kinase inhibition (HIPK2(h); 1 μg/ml) was 120% of control and the kinase inhibition (HIPK2(h); 5 μg/ml) was 111% of control. The kinase inhibition (HIPK2(h); 25 μg/ml) was 115% of control, the kinase inhibition (HIPK2(h); 50 μg/ml) was 110% of control and the kinase inhibition (HIPK2(h); 100 μg/ml) was 97% of control. For the same compound, the kinase inhibition (PDGFRβ(h); 1 μg/ml) was 111% of control, the kinase inhibition (PDGFRβ(h); 5 μg/ml) was 110% of control and the kinase inhibition (PDGFRβ(h); 25 μg/ml) was 53% of control. The kinase inhibition (PDGFRβ(h); 50 μg/ml) was 50% of control, the kinase inhibition (PDGFRβ(h); 100 μg/ml) was 44% of control and the kinase inhibition (MKK4(m); 1 μg/ml) was 120% of control. The kinase inhibition (MKK4(m); 5 μg/ml) was 127% of control, the kinase inhibition (MKK4(m); 25 μg/ml) was 91% of control and the kinase inhibition (MKK4(m); 50 μg/ml) was 95% of control. For the same compound, the kinase inhibition (MKK4(m); 100 μg/ml) was 85% of control, the kinase inhibition (EGFR(L858R)(h); 1 μg/ml) was 109% of control and the kinase inhibition (EGFR(L858R)(h); 5 μg/ml) was 117% of control. The kinase inhibition (EGFR(L858R)(h); 25 μg/ml) was 104% of control, the kinase inhibition (EGFR(L858R)(h); 50 μg/ml) was 90% of control and the kinase inhibition (EGFR(L858R)(h); 100 μg/ml) was 70% of control. The kinase inhibition (DAPK1(h); 1 μg/ml) was 63% of control, the kinase inhibition (DAPK1(h); 5 μg/ml) was 40% of control and the kinase inhibition (DAPK1(h); 25 μg/ml) was 32% of control. The kinase inhibition (DAPK1(h); 50 μg/ml) was 25% of control, the kinase inhibition (DAPK1(h); 100 μg/ml) was 19% of control and the kinase inhibition (PAK2(h); 1 μg/ml) was 116% of control. The kinase inhibition (PAK2(h); 5 μg/ml) was 110% of control, the kinase inhibition (PAK2(h); 25 μg/ml) was 107% of control and the kinase inhibition (PAK2(h); 50 μg/ml) was 101% of control. For the same compound, the kinase inhibition (PAK2(h); 100 μg/ml) was 96% of control, the kinase inhibition (SAPK3(h); 1 μg/ml) was 109% of control and the kinase inhibition (SAPK3(h); 5 μg/ml) was 99% of control. The kinase inhibition (SAPK3(h); 25 μg/ml) was 114% of control, the kinase inhibition (SAPK3(h); 50 μg/ml) was 122% of control and the kinase inhibition (SAPK3(h); 100 μg/ml) was 106% of control. For the same compound, the kinase inhibition (CK1γ3(h); 1 μg/ml) was 96% of control, the kinase inhibition (CK1γ3(h); 5 μg/ml) was 91% of control and the kinase inhibition (CK1γ3(h); 25 μg/ml) was 83% of control. For the same compound, the kinase inhibition (CK1γ3(h); 50 μg/ml) was 43% of control, the kinase inhibition (CK1γ3(h); 100 μg/ml) was 34% of control and the kinase inhibition (CDK5/p25(h); 1 μg/ml) was 93% of control. For the same compound, the kinase inhibition (CDK5/p25(h); 5 μg/ml) was 96% of control, the kinase inhibition (CDK5/p25(h); 25 μg/ml) was 103% of control and the kinase inhibition (CDK5/p25(h); 50 μg/ml) was 88% of control. The kinase inhibition (CDK5/p25(h); 100 μg/ml) was 77% of control, the kinase inhibition (SIK(h); 1 μg/ml) was 102% of control and the kinase inhibition (SIK(h); 5 μg/ml) was 99% of control. For the same compound, the kinase inhibition (SIK(h); 25 μg/ml) was 104% of control, the kinase inhibition (SIK(h); 50 μg/ml) was 89% of control and the kinase inhibition (SIK(h); 100 μg/ml) was 62% of control.
